Source: PubChem BioAssay AID2060623 (Molecular Pharmacology Branch, DTP, NCI, 2025)
Values joined by “and” are separate entries in the source; they are usually repeats but may differ in a detail not shown here. Identical values can stand only once.

Tested on: 227483-062-R1-J1-PDC complex spheroids with HUVEC/MSC, viability
Assay: Anticancer human tumor 227483-062-R1-J1-PDC patient-derived pancreatic carcinoma cell line growth inhibition [CLK]
Conditions: for viability, T/C: stronger effect = lower value
Outline: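 Patient-derived tumor cells grown as complex spheroids with HUVEC endothelial cells and mesenchymal stem cells, treated with drug combinations. Concentrations descend in half-log steps from near clinical Cmax, or from 10 microM if Cmax unknown.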

[1] = curve of first compound, second compound 0.0316 µM
[2] = curve of first compound, second compound 0.1 µM
[3] = curve of first compound, second compound 0.316 µM
[4] = curve of first compound, second compound 1 µM
[5] = curve of first compound, second compound 3.16 µM
[6] = curve of first compound, second compound 10 µM
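Note: spheroids exposed to compounds for seven days before readout.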
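Throughout, for viability, T/C: percent of DMSO vehicle control luminescence as 100% viability.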

Structure (SMILES): C=CC(=O)Nc1cc(Nc2nccc(-c3cn(C)c4ccccc34)n2)c(OC)cc1N(C)CCN(C)C + CN1CCN(c2cc(C(=O)Nc3cc4cc(-c5cnn(C)c5)ccc4cn3)ccn2)CC1
- IC50 [1]: > 300 nM
- IC50 [2]: > 300 nM
- IC50 [3]: < 0.949 nM
- IC50 [4]: < 0.949 nM
- IC50 [5]: < 0.949 nM
- IC50 [6]: < 0.949 nM
- viability, T/C (second compound 0.0316 µM, first compound 0.000949 µM): 101%
- viability, T/C (second compound 0.0316 µM, first compound 0.003 µM): 104%
- viability, T/C (second compound 0.0316 µM, first compound 0.00949 µM): 117%
- viability, T/C (second compound 0.0316 µM, first compound 0.03 µM): 99.1%
- viability, T/C (second compound 0.0316 µM, first compound 0.0949 µM): 87.5%
- viability, T/C (second compound 0.0316 µM, first compound 0.3 µM): 79.2%
- viability, T/C (second compound 0.1 µM, first compound 0.000949 µM): 71.5%
- viability, T/C (second compound 0.1 µM, first compound 0.003 µM): 64.6%
- viability, T/C (second compound 0.1 µM, first compound 0.00949 µM): 61.5%
- viability, T/C (second compound 0.1 µM, first compound 0.03 µM): 77%
- viability, T/C (second compound 0.1 µM, first compound 0.0949 µM): 68%
- viability, T/C (second compound 0.1 µM, first compound 0.3 µM): 56%
- viability, T/C (second compound 0.316 µM, first compound 0.000949 µM): 4.77%
- viability, T/C (second compound 0.316 µM, first compound 0.003 µM): 5.57%
- viability, T/C (second compound 0.316 µM, first compound 0.00949 µM): 5.48%
- viability, T/C (second compound 0.316 µM, first compound 0.03 µM): 5.73%
- viability, T/C (second compound 0.316 µM, first compound 0.0949 µM): 8.02%
- viability, T/C (second compound 0.316 µM, first compound 0.3 µM): 4.25%
- viability, T/C (second compound 1 µM, first compound 0.000949 µM): 3.69%
- viability, T/C (second compound 1 µM, first compound 0.003 µM): 1.6%
- viability, T/C (second compound 1 µM, first compound 0.00949 µM): 2.26%
- viability, T/C (second compound 1 µM, first compound 0.03 µM): 4.39%
- viability, T/C (second compound 1 µM, first compound 0.0949 µM): 2.66%
- viability, T/C (second compound 1 µM, first compound 0.3 µM): 1.57%
- viability, T/C (second compound 3.16 µM, first compound 0.000949 µM): 3.65%
- viability, T/C (second compound 3.16 µM, first compound 0.003 µM): 4.21%
- viability, T/C (second compound 3.16 µM, first compound 0.00949 µM): 3%
- viability, T/C (second compound 3.16 µM, first compound 0.03 µM): 7.42%
- viability, T/C (second compound 3.16 µM, first compound 0.0949 µM): 2.8%
- viability, T/C (second compound 3.16 µM, first compound 0.3 µM): 5.59%
- viability, T/C (second compound 10 µM, first compound 0.000949 µM): 3.23%
- viability, T/C (second compound 10 µM, first compound 0.003 µM): 6.58%
- viability, T/C (second compound 10 µM, first compound 0.00949 µM): 2.57%
- viability, T/C (second compound 10 µM, first compound 0.03 µM): 4.96%
- viability, T/C (second compound 10 µM, first compound 0.0949 µM): 2.09%
- viability, T/C (second compound 10 µM, first compound 0.3 µM): 1.83%

Structure (SMILES): COc1c(OCCCN2CCOCC2)ccc2c3n(c(=NC(=O)c4cnc(N)nc4)nc12)CCN3
- viability, T/C (compound 0.00316 µM): 92.4% and 100%
- viability, T/C (compound 0.01 µM): 90.7% and 83.8%
- viability, T/C (compound 0.0316 µM): 85% and 72.6%
- viability, T/C (compound 0.1 µM): 56.2% and 75.9%
- viability, T/C (compound 0.316 µM): 55.8% and 59.5%
- viability, T/C (compound 1 µM): 45.3% and 40.5%
- IC50 (curve of compound): > 1000 nM and 575 nM

Structure (SMILES): CC(CO)NC(=O)c1cc(-c2ccc(Cl)cc2)nn(-c2cnn(C)c2)c1=O (stereo not given)
- viability, T/C (compound 0.0316 µM): 100% and 88.3%
- viability, T/C (compound 0.1 µM): 106% and 97.9%
- viability, T/C (compound 0.316 µM): 95% and 100%
- viability, T/C (compound 1 µM): 113% and 88.8%
- viability, T/C (compound 3.16 µM): 88.7% and 108%
- viability, T/C (compound 10 µM): 90.4% and 87%
- IC50 (curve of compound): > 10000 nM

Structure (SMILES): COc1ccc([C@@H](O)c2cc(-c3ncnc4cc(N5CCOCC5)ccc34)c(F)cc2Cl)nn1
- viability, T/C (compound 0.0316 µM): 102% and 90.1%
- viability, T/C (compound 0.1 µM): 101% and 86%
- viability, T/C (compound 0.316 µM): 94.7% and 86.4%
- viability, T/C (compound 1 µM): 95.4% and 98.6%
- viability, T/C (compound 3.16 µM): 92.6% and 80.2%
- viability, T/C (compound 10 µM): 92.5% and 71%
- IC50 (curve of compound): > 10000 nM

Structure (SMILES): CC(Nc1ccc2c(c1)OCCn1cc(N3C(=O)OCC3C(F)F)nc1-2)C(N)=O (stereo not given) + CNC(=O)c1ccc(Nc2nc(OC3CCCC3)c3c(-c4ccc5nc(C)oc5c4)c[nH]c3n2)c(OC)c1
- IC50 [1]: > 10000 nM
- IC50 [2]: > 10000 nM
- IC50 [3]: > 10000 nM
- IC50 [4]: 73.3 nM
- IC50 [5]: < 31.6 nM
- IC50 [6]: < 31.6 nM
- viability, T/C (second compound 0.0316 µM, first compound 0.0316 µM): 105%
- viability, T/C (second compound 0.0316 µM, first compound 0.1 µM): 82.3%
- viability, T/C (second compound 0.0316 µM, first compound 0.316 µM): 83.9%
- viability, T/C (second compound 0.0316 µM, first compound 1 µM): 85.5%
- viability, T/C (second compound 0.0316 µM, first compound 3.16 µM): 65.4%
- viability, T/C (second compound 0.0316 µM, first compound 10 µM): 67.3%
- viability, T/C (second compound 0.1 µM, first compound 0.0316 µM): 88%
- viability, T/C (second compound 0.1 µM, first compound 0.1 µM): 78.4%
- viability, T/C (second compound 0.1 µM, first compound 0.316 µM): 66.1%
- viability, T/C (second compound 0.1 µM, first compound 1 µM): 70.3%
- viability, T/C (second compound 0.1 µM, first compound 3.16 µM): 55.7%
- viability, T/C (second compound 0.1 µM, first compound 10 µM): 58.2%
- viability, T/C (second compound 0.316 µM, first compound 0.0316 µM): 92.5%
- viability, T/C (second compound 0.316 µM, first compound 0.1 µM): 64.3%
- viability, T/C (second compound 0.316 µM, first compound 0.316 µM): 65.5%
- viability, T/C (second compound 0.316 µM, first compound 1 µM): 52.4%
- viability, T/C (second compound 0.316 µM, first compound 3.16 µM): 56.9%
- viability, T/C (second compound 0.316 µM, first compound 10 µM): 49.7%
- viability, T/C (second compound 1 µM, first compound 0.0316 µM): 60.6%
- viability, T/C (second compound 1 µM, first compound 0.1 µM): 45.1%
- viability, T/C (second compound 1 µM, first compound 0.316 µM): 46.9%
- viability, T/C (second compound 1 µM, first compound 1 µM): 47.7%
- viability, T/C (second compound 1 µM, first compound 3.16 µM): 39.7%
- viability, T/C (second compound 1 µM, first compound 10 µM): 41.9%
- viability, T/C (second compound 3.16 µM, first compound 0.0316 µM): 45%
- viability, T/C (second compound 3.16 µM, first compound 0.1 µM): 49.8%
- viability, T/C (second compound 3.16 µM, first compound 0.316 µM): 32%
- viability, T/C (second compound 3.16 µM, first compound 1 µM): 33.4%
- viability, T/C (second compound 3.16 µM, first compound 3.16 µM): 35.4%
- viability, T/C (second compound 3.16 µM, first compound 10 µM): 25.9%
- viability, T/C (second compound 10 µM, first compound 0.0316 µM): 38.6%
- viability, T/C (second compound 10 µM, first compound 0.1 µM): 46.2%
- viability, T/C (second compound 10 µM, first compound 0.316 µM): 37.7%
- viability, T/C (second compound 10 µM, first compound 1 µM): 27.8%
- viability, T/C (second compound 10 µM, first compound 3.16 µM): 32.9%
- viability, T/C (second compound 10 µM, first compound 10 µM): 24.9%
